Experimental data: patent US7585521B2, “Controlled release ceramic particles, compositions thereof, processes of preparation and methods of use” (Australian Nuclear Science & Technology Organisation, priority 2000, dated 2009)

Key:
[1] = Degradation of cis-platin in silica gels on aging at 60° C., examined by transmission electron microscopy; type: physicochemical
Procedure: The substitution of metal alkoxides by organically modified silicon alkoxides leads to the replacement of the hydroxyl groups at the surface of the pores by organic moieties (e.g. methyl vinyl, glycidyloxypropyl groups). This prevents interaction between the entrapped bio-molecules and the surface, and potential degradation of the active ingredient. This is illustrated by the encapsulation of cis-platin in silica gels.
A solution containing 20 ml of TMOS (134 mmol), 9.69 ml of cis-platin solution (538 mmol of water) and 21.8 ml of methanol (538 mmol) was stirred for 30 minutes. 4 ml aliquots of the solution were transferred to 5 ml screw capped poly-propylene vials and placed in an oven at 60° C. to gel. Once gelation occurred the samples were aged at 60° C. for 15 days. The cap was then removed and the samples were allowed to dry for 3 days at 60° C.
An identical procedure was used to prepare gels from a solution containing 3 ml of TMOS, 2.88 ml of MTMS and 2.91 ml of cis-platin solution.
After 3 days of aging at 60° C. the gels prepared from TMOS started to darken, ultimately yielding a black gel after 15 days aging. […] The two dry gels were subsequently examined by transmission electron microscopy using a JEOL 201 OF field emission gun microscope.

[2] = Release of cycloheximide and cis-platin from gels, UV absorbance; type: physicochemical; settings: release from gels in 3 ml of 0.9% NaCl, 300 nm
Procedure: The first series of samples was prepared by mixing 5.51 ml of TMOS (37 mmol), 2.67 ml of either drug solutions (148 mmol of H2O) and 6 ml of methanol (148 mmol). 4 ml aliquots of the solutions were transferred to 5 ml screw capped poly-propylene vials and placed in an oven at 60° C. to gel. Once gelation occurred the samples were aged at 60° C. for 7 days. The cap was then removed and the samples were allowed to dry for 3 days at 60° C.
A second series of samples was prepared by combining 3 ml of TMOS (20 mmol), 2.88 ml of MTMS (20 mmol) and 2.91 ml of the respective drug solution (161 mmol of H2O). These samples were processed as described above.
The release of cycloheximide from a known quantity of gel was investigated in 3 ml of demineralised water and the absorbance was monitored at a fixed wavelength, .λmax=201 nm. The release of cis-platin from a known quantity of gel was investigated in 3 ml of 0.9% NaCl and the absorbance was monitored at a fixed wavelength, λmax=300 nm.

[3] = spray-dried particles produced from bohemite sols; cited from earlier work
[4] = Release of dye from sol-gel silica gels/microspheres into demineralised water, UV-visible absorbance; type: physicochemical
Procedure: The release of the dye molecule from the gels was performed in 3 ml of demineralised water and the evolution of the absorbance with time was monitored at a fixed wavelength λmax=485 nm using a UV-visible spectrophotometer (Lambda 40, Perkin Elmer, USA). The wavelength of 485 nm corresponds to the absorbance maximum of Orange II in the visible spectrum.
The plots of fraction of dye released versus time (FIG. 1) were obtained by dividing the actual quantity of dye released by the total mass of dye encapsulated in the gel. For the dry gel, this quantity is calculated by dividing the total quantity of dye in the gel rod by the mass of the gel and multiplying it by the mass of the gel sample used in the release experiments. For the wet gel, the fraction released was obtained experimentally from the final absorbance.
To study the influence of the temperature on the release rate, a known quantity of gel was immersed in 3 ml of demineralised water and the absorbance was monitored at a fixed wavelength of 485 nm. One sample was kept at ambient temperature (i.e. 22° C.) and two others were maintained at 37° C. and 60° C. in thermostated water baths.
The release rates of the Orange II samples were monitored at a fixed wavelength of 485 nm while the release rates of the methyl-violet samples were monitored at 584 nm (corresponding to the absorption peak of methyl-violet in the visible spectrum).

Q: Which results are given for Cis Pt(NH3)2Cl2 [cis-platin]?
A: reaction of cis-platin with the matrix, MTMS substituted gels ([1]; 50% of TMOS substituted by MTMS): prevents any such precipitation; reaction of cis-platin with the matrix, silica gels ([1]; encapsulated in silica gels (TMOS)): precipitation of metallic platinum nanoparticles; release rate compared with cycloheximide [2]: greater

Q: Which “release of encapsulated imipramine” value [3] does the source give for `CN(C)CCCN1c2ccccc2CCc2ccccc21` [imipramine] here?
A: released within five minutes

Q: For methyl violet, which “release rate compared with Orange II” value ([4]; gels W=4, D=4, aged 15 or 30 days at 60° C., monitored at 584 nm) is on record?
A: significantly smaller

Q: Which results are given for `O=S(=O)([O-])c1ccc(N=Nc2c(O)ccc3ccccc23)cc1.[Na+]` [Orange II, 4-(2-hydroxy-1-napthylazo) benzene sulfonic acid, sodium salt]?
A: release rate versus MTMS content ([4]; 0-50% of TMOS substituted with MTMS, W=4, D=4): decrease with increasing MTMS content; release rate versus drying time and temperature ([4]; gels W=4, D=0, dried 1, 3 or 7 days at ambient, 60° or 104° C.): decrease with increasing time and temperature; pH of maximum release rate ([4]; gels W=4, D=4, dye solution pH 1-11): 7; release rate versus pH, acid catalyst ([4]; gels W=4, D=4, synthesised using acid as a catalyst): increase with increasing pH; release rate versus pH, base catalyst ([4]; gels W=4, D=4, synthesised using base as a catalyst): decrease with increasing pH; release rate versus syneresis time ([4]; gels aged at 60° C. for 0-30 days): increase with syneresis time; release rate of the dye versus W and D ([4]; gels with W = 2-8, D = 0-8, release in demineralised water, 485 nm): increase with increasing W and decreasing D; release rate of microspheres versus drying temperature ([4]; microspheres dried from ambient to 100° C. for 2 days): decreases with increasing drying temperature; release rate versus temperature of the release media ([4]; release at 22° C., 37° C. and 60° C. in demineralised water): increase with increasing temperature
